The numbers were not newly measured in US8993316B2, “Methods and compositions for gene therapy and GHRH therapy” (priority 2011, dated 2015), which cites them from elsewhere.

Assay in series [1]: not given
The source holds these as a separate data set.

As to `COc1cc(CC(C)N)c(OC)cc1I` (stereo not drawn) [DOI, 2,5-dimethoxy-4-iodoamphetamine], the rough half-life (in vivo) was 12 to 15 h. In addition, the therapeutic effect duration (long acting) is at least 30 h.

For “GHRH: growth hormone releasing hormone, a peptide hormone”, the half-life after injection result in series [1] is “roughly 8 minutes”.
